The results in this text go back to paper PMC10974149, “Acheta domesticus: A Natural Source of Anti-Skin-Aging Ingredients for Cosmetic Applications” (Pharmaceuticals, 2024).

The structures appear in SMILES notation. Converted amounts (≈) assume the structure as drawn.

The target in the assay is T1, collagenase from Clostridium histolyticum.
T1 construct: gene colG
Nature of the assay: spectrophotometric collagenase inhibition assay. The conditions noted are these: positive control; substrate not stated in the assay section (FALGPA among reagents). In kind it is biochemical. From the text:
spectrophotometric collagenase inhibition assay on collagenase from Clostridium histolyticum

For the molecule `CC1(C)CC[C@]2(C(=O)O)CC[C@]3(C)C(=CC[C@@H]4[C@@]5(C)CC[C@H](O)C(C)(C)[C@@H]5CC[C@]43C)[C@@H]2C1` [OA, Oleanolic acid], the “IC50 (μg/mL) / Collagenase Inhibition” value came to 3 ± 1 µg/mL (≈ 6.57 µM).
